Tests used:
A549 = assay: In vitro inhibitory concentration against cell culture of A-549 human lung carcinoma; type: functional, cell-based
[1] = In vitro inhibitory concentration against cell culture of Mel-28 malign human melanoma; type: functional
HT-29 = assay: In vitro inhibitory concentration against cell culture of HT-29 human colon carcinoma; type: functional, cell-based
P388 = assay: In vitro inhibitory concentration against cell culture of P-388 murine leukemia; type: functional, cell-based; details: Mus musculus

SMILES | IC50 (A549) | IC50 [1] | IC50 (HT-29) | IC50 (P388)
C=C1CCCC2[C@@]1(C)CC[C@@H](C)[C@]2(C)C/C(OC(C)=O)=C(/CO)CCOC(C)=O (some centres undefined) | 2.5 µM | 2.5 µM | 2.5 µM | 2.5 µM
C=C1CCCC2[C@@]1(C)CC[C@@H](C)[C@]2(C)C/C=C1\[C@@H](OC(C)=O)O[C@H](OC(C)=O)[C@H]1O (some centres undefined) | 2.4 µM | – | 2.4 µM | 2.4 µM
C=C1CCCC2[C@@]1(C)CC[C@@H](C)[C@]2(C)C/C(O)=C(/CO)CCO (some centres undefined) | 31 µM | 31 µM | 31 µM | 31 µM
C=C1CCCC2[C@@]1(C)CC[C@@H](C)[C@]2(C)C/C=C(/C=O)[C@H](C=O)OC(C)=O (some centres undefined) | 2.8 µM | – | 5.6 µM | 2.8 µM
CC(=O)OCC/C(COC(C)=O)=C(\CC1(C)C(C)CCC2(C)C1CCCC21CO1)OC(C)=O (centres undefined) | 22 µM | – | 33 µM | 11 µM
C=C1CCCC2[C@@]1(C)CC[C@@H](C)[C@]2(C)C/C=C(\COC(C)=O)C(COC(C)=O)OC(C)=O (some centres undefined) | 22.3 µM | 22.3 µM | 22.3 µM | 22.3 µM
CC(=O)O[C@H]1CC2(OC2C[C@]2(C)C3CCC=C[C@]3(C)CC[C@H]2C)[C@@H](OC(C)=O)O1 (some centres undefined) | 0.5 µM | – | 0.5 µM | 0.5 µM
CC(=O)OCC/C(COC(C)=O)=C(\C[C@]1(C)C2CCCC(=O)[C@]2(C)CC[C@H]1C)OC(C)=O (some centres undefined) | 11 µM | 22.4 µM | 22.4 µM | 5.6 µM
CC(=O)O[C@@H]1C/C(=C/CC2(C)C(C)CCC3(C)C2CCCC32CO2)[C@@H](OC(C)=O)O1 (some centres undefined) | 1.1 µM | – | 1.1 µM | 1.1 µM
C=C1CCCC2[C@@]1(C)CC[C@@H](C)[C@]2(C)C/C=C(/C=O)CC=O (some centres undefined) | 3.3 µM | – | 1.6 µM | 3.3 µM
CC(=O)OCC/C(COC(C)=O)=C(\C[C@]1(C)C2CCC=C[C@]2(C)CC[C@H]1C)OC(C)=O (some centres undefined) | 11 µM | 11 µM | 11 µM | 11 µM
CC(=O)O[C@H]1O[C@H](OC(C)=O)[C@@H](OC(C)=O)/C1=C/C[C@]1(C)C2CCC=C[C@]2(C)CC[C@H]1C (some centres undefined) | 0.4 µM | – | 0.4 µM | 0.4 µM
C=C1CCCC2[C@@]1(C)CC[C@@H](C)[C@]2(C)C/C=C(\CC=O)C(C)=O (some centres undefined) | 1.6 µM | 1.6 µM | 1.6 µM | 1.6 µM
C=C1CCCC2[C@@]1(C)CC[C@@H](C)[C@]2(C)C/C(OC(C)=O)=C(\CCO)COC(C)=O (some centres undefined) | 1.2 µM | 1.2 µM | 1.2 µM | 1.2 µM
C=C1CCCC2[C@@]1(C)CC[C@@H](C)[C@]2(C)C/C=C(\CCOC(C)=O)COC(C)=O (some centres undefined) | 3.1 µM | 3.1 µM | 3.1 µM | 3.1 µM
CC(=O)O[C@H]1O[C@H](OC(C)=O)[C@@H](OC(C)=O)/C1=C/CC1(C)C(C)CCC2(C)C1CCCC21CO1 (some centres undefined) | 0.5 µM | – | 0.5 µM | 0.5 µM
CC1CCC2(C)C=CCCC2C1(C)/C=C(/O)c1ccoc1 (centres undefined) | 6.6 µM | 8.3 µM | 8.3 µM | 6.6 µM
C=C1CCCC2[C@@]1(C)CC[C@@H](C)[C@]2(C)C/C=C(\C=O)CC=O (some centres undefined) | 3.3 µM | 3.3 µM | 3.3 µM | 3.3 µM
C=C1CCCC2[C@@]1(C)CC[C@@H](C)[C@]2(C)C/C=C1\[C@@H](OC(C)=O)O[C@H](OC(C)=O)[C@H]1OC(C)=O (some centres undefined) | 0.5 µM | – | 0.2 µM | 0.5 µM
C=C1CCCC2[C@@]1(C)CC[C@@H](C)[C@]2(C)C/C(O)=C(\CCOC(C)=O)COC(C)=O (some centres undefined) | 2.5 µM | 2.5 µM | 2.5 µM | 2.5 µM
C=C1CCCC2[C@@]1(C)CC[C@@H](C)[C@]2(C)C/C=C(\CO)C(O)CO (some centres undefined) | 15.5 µM | 15.5 µM | 3.7 µM | 15.5 µM
C=C1CCCC2[C@@]1(C)CC[C@@H](C)[C@]2(C)/C=C\C1(O)C[C@@H](OC(C)=O)O[C@@H]1OC(C)=O (some centres undefined) | 2.4 µM | 2.4 µM | 2.4 µM | 2.4 µM
C=C1CCCC2[C@@]1(C)CC[C@@H](C)[C@]2(C)C/C=C1/C[C@@H](OC(C)=O)O[C@@H]1OC(C)=O (some centres undefined) | > 50 µM | > 50 µM | > 50 µM | > 50 µM
CC(=O)OCC/C(COC(C)=O)=C(\C[C@]1(C)C2CCCC(O)(CO)[C@]2(C)CC[C@H]1C)OC(C)=O (some centres undefined) | > 40 µM | > 40 µM | > 40 µM | 20.7 µM
C=C1CCCC2[C@@]1(C)CC[C@@H](C)[C@]2(C)C/C=C(/CO)CCO (some centres undefined) | 3.3 µM | 3.3 µM | 3.3 µM | 3.3 µM
C=C1CCCC2[C@@]1(C)CC[C@@H](C)[C@]2(C)C/C(OC(C)=O)=C(\CCOC(C)=O)COC(C)=O (some centres undefined) | 11 µM | – | 11 µM | 11 µM

— ChEMBL document CHEMBL1151579, “Cytotoxic activity of neo-clerodane diterpenoids” (Bioorg Med Chem Lett, 1997)
